Measurements published in patent publication US20100197603A1, “USE OF RGDSPASSKP AND OPTIONALLY ANGIOTENSIN II AS THERAPEUTIC AGENTS IN THE TREATMENT OF EG S. PNEUMONIAE INFECTIONS” (priority 2007, published 2010).
Where no end group is shown, it is not given here.

Assays:
[1] = tested on: hepatitis B virus (HBV) ayw strain; assay: HBV experimental assay system (HepG2-2.2.15, TaqMan PCR of secreted HBV DNA); assay type: cell-based; details: 10 micrograms per ml, six days, HBV DNA by TaqMan PCR
Source text: HepG2-2.2.15 is a stable cell line containing the hepatitis B virus (HBV) ayw strain genome (ATCC Cat. No. CRL-11997). Antiviral compounds blocking any late step of viral replication such as transcription, translation, pregenome encapsidation, reverse transcription, particle assembly and release can be identified and characterized using this cell line. In this assay, an active compound will reduce the production of secreted HBV from cells, measured by utilizing real time quantitative PCR (TaqMan) assay to directly and accurately measure HBV DNA copies.
HepG2-2.2.15 cells were plated in 96-well microtiter plates. After 16-24 hours the confluent monolayer of HepG2-2.2.15 cells was washed and the medium was replaced with complete medium containing test peptides—10 micrograms per ml—in duplicate. […] Six days following the initial administration of the peptides, the cell culture supernatants was collected, treated with pronase and DNAse and then used in a real-time quantitative TaqMan PCR assay. The PCR-amplified HBV DNA was detected in real-time by monitoring increases in fluorescence signals that result from the exonucleolytic degradation of a quenched fluorescence probe molecule that hybridizes to the amplified HBV DNA. […] Antiviral activity was calculated from the reduction in HBV DNA levels (% virus control). […]

HCMV strain AD169 = assay: HCMV plaque formation assay in MRC-5 cells; details: for inhibition of HCMV plaque formation as compared to the virus control: 10 micrograms per ml, 7-10 days
[2] = tested on: Primary Human endothelial cells (HUVEC); assay: Endothelial cell migration assay; assay type: cell-based; details: 10 micrograms per ml, 22 hours
HUVEC = assay: Endothelial tube formation assay; assay type: cell-based, human; details: 10 micrograms per ml, 20 hours
Streptococcus pneumoniae = Streptococcus pneumoniae growth assay; assay type: cell-based; details: 10 micrograms per ml; 5×10^5 CFU/mL; read visually
murine spleen cells = assay: Th1/Th2 cytokine profiling assay (Ovalbumin-restimulated spleen cells, CBA kit); assay type: cell-based, Balb/c mice; details: 10 micrograms per ml, Ovalbumin restimulation, 72 hours
HIV-1IIIB = assay: HIV-1 antiviral assay in CEM-SS cells (MTS readout)

Molecule	inhibition of HBV replication as compared to the virus control infection [1]	inhibition of HCMV plaque formation as compared to the virus control (HCMV strain AD169)	inhibition of the migration of human endothelial cells [2]	inhibition of the tube formation of human endothelial cells (HUVEC)	inhibition of the growth of Streptococcus pneumoniae (Streptococcus pneumoniae)	change of the production of IL-5 (murine spleen cells)	induction of the production of IFN-γ (murine spleen cells)	induction of the production of IL-2 (murine spleen cells)	induction of the production of IL-4 (murine spleen cells)	induction of the production of TNF-alpha (murine spleen cells)	antiviral activity of positive control compounds (HIV-1) (HIV-1IIIB)	antiviral activity of positive control compound (HCMV) (HCMV strain AD169; positive control)
Arg-Gly-Asp-Ser-Pro-Ala-Ser-Ser-Lys-Pro-OH (RGDSPASSKP-OH) [Peptide 1]	57.8%	did not inhibit	2%	54%	100%	did not significantly change	24.5%	134.2%	132.5%	34.0%		
Asp-Arg-Val-Tyr-Ile-His-Pro-Phe-OH (DRVYIHPF-OH) [Peptide 2]	43.4%	did not inhibit	10%		100%	did not significantly change	36.4%	did not significantly change	55%	did not significantly change		
CC(C)(C)NC(=O)[C@@H]1CN(Cc2cccnc2)CCN1C[C@@H](O)C[C@@H](Cc1ccccc1)C(=O)N[C@H]1c2ccccc2C[C@H]1O [indinavir]											expected levels of antiviral activity	
Nc1nc(O)c2ncn(COC(CO)CO)c2n1 [Ganciclovir, reference compound]												expected levels of antiviral activity
Cc1cn([C@H]2C[C@H](N=[N+]=[N-])[C@@H](CO)O2)c(=O)[nH]c1=O [AZT]											expected levels of antiviral activity	
